Reference: PMC8794255, “Small molecule inhibitor of Igf2bp1 represses Kras and a pro-oncogenic phenotype in cancer cells” (RNA Biology, 2021)
Several values for one entry are separate records, joined by “and”; a condition that tells them apart may be missing. Equal entries are not always repeated.

Assays:
[1] = system: LKR-M cells expressing GFP alone; assay: Wound healing assay, LKR-M cells expressing GFP alone; assay type: cell-based, mouse; conditions: 20 μM 7773 vs DMSO
Description: Cells were seeded in 96 IncuCyte® ImageLock plates (20X10^3 cells per well) for 24 hours, to a near confluency of 95%, before the addition of increasing concentrations of compound. After a further 24 hours, wells were scratched using the IncuCyte® 96-well WoundMaker Tool, and the cells cultured for an additional 48 hours using the IncuCyte® S3 Live-Cell Analysis System (Essen BioScience). The plate was imaged at increments of 120 minutes for a period of 48 hours, and then analysed for relative wound healing.

Igf2bp1 = target: T1, Igf2bp1 (Homo sapiens, UniProt Q9NZI8); assay: Fluorescence polarization (FP) assay of Igf2bp1 binding to fluorescent Kras 6 RNA; conditions: FP dose response; read-out: IC50, inhibition of Igf2bp1 binding to Kras 6 RNA
T1 construct: Recombinant full-length Igf2bp1 protein was labelled with RED-tris-NTA dye; made in house
Description: For the small-molecule screen, compounds were obtained from the collection maintained at the Grand Israel National Center for Personalized Medicine, consisting of molecules purchased from commercial vendors. Labelled RNA (10 nM) was incubated with recombinant Igf2bp1 protein (400 nM) in FAM-RNA buffer (10 mM Tris pH 8.0, 75 mM KCl, 0.5 mM EDTA, 1 mM DTT, 0.0188 U/μL RNAsin, 0.0005 μg/mL heparin, 0.0001 μg/μL tRNA, 0.01% Triton X-100, 3 mM MgCl2, 0.05% IGEPAL) at room temperature for 15 min. 7 μL of this reaction mix was aliquoted with GNF WDII (USA) into wells of 1536 well plates, with a final concentration of 20 μM compound or DMSO. The plates were spun down and read in a BMG Pherastar FS (Germany) plate reader, in FP mode with a 485/520/520 polarization filter, calibrated to 35 mP for free fluorescein with similar total intensity as experimental samples. […]
To determine the quality of our screening assay, the Z’ factor for each plate was calculated with a Z’ factor greater than 0.5 indicating a robust assay suitable for high throughput screening. Compounds that altered the overall fluorescence intensity compared to controls were considered auto florescence and excluded from further analysis. […] Any small molecule that causes a change of more than three standard deviations from the mean is determined appropriate for further investigation.

G9a = target: T2, G9a (Homo sapiens, UniProt Q96KQ7); assay: G9a FP assay (SAH-FITC probe); assay type: biochemical
T2 sequence (Q96KQ7 1-1210): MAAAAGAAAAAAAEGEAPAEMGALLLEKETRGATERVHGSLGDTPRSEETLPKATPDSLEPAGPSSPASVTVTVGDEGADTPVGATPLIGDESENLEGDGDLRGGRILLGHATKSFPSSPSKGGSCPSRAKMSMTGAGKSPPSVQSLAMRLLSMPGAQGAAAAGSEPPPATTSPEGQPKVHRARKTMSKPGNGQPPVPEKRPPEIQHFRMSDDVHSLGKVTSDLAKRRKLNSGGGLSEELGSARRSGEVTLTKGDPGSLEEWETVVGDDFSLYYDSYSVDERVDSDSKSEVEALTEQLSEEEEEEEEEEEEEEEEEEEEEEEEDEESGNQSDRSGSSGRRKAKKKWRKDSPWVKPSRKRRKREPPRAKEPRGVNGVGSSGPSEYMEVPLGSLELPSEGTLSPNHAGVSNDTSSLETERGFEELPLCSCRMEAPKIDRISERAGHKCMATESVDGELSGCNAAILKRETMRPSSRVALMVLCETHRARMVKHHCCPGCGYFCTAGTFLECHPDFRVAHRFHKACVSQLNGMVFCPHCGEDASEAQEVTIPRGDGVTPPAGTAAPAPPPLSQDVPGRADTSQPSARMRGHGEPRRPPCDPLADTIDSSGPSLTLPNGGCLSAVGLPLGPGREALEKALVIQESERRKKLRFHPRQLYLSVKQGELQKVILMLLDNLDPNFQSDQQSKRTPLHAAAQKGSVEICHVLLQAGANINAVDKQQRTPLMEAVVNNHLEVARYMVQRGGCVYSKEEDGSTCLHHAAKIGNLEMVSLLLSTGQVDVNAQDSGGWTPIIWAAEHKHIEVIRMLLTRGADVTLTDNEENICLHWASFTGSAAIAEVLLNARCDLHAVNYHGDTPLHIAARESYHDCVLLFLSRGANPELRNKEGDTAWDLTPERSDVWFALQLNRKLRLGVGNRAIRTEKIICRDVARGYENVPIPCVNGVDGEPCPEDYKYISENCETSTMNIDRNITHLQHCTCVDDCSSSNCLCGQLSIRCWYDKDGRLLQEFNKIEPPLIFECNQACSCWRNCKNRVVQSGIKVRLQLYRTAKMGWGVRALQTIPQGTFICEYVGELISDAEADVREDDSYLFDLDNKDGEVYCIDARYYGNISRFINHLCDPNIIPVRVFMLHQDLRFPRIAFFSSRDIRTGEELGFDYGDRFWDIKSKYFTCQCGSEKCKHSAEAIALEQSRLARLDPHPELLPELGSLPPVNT
Description: For the small-molecule screen, compounds were obtained from the collection maintained at the Grand Israel National Center for Personalized Medicine, consisting of molecules purchased from commercial vendors. Labelled RNA (10 nM) was incubated with recombinant Igf2bp1 protein (400 nM) in FAM-RNA buffer (10 mM Tris pH 8.0, 75 mM KCl, 0.5 mM EDTA, 1 mM DTT, 0.0188 U/μL RNAsin, 0.0005 μg/mL heparin, 0.0001 μg/μL tRNA, 0.01% Triton X-100, 3 mM MgCl2, 0.05% IGEPAL) at room temperature for 15 min. 7 μL of this reaction mix was aliquoted with GNF WDII (USA) into wells of 1536 well plates, with a final concentration of 20 μM compound or DMSO. The plates were spun down and read in a BMG Pherastar FS (Germany) plate reader, in FP mode with a 485/520/520 polarization filter, calibrated to 35 mP for free fluorescein with similar total intensity as experimental samples. […]

[2] = system: Igf2bp1-luciferase reporter fusions in RKO cells; assay: Split-luciferase assay (Igf2bp1 dimerization) in RKO cells; assay type: cell-based; conditions: 50 μM 7773
Description: Vectors expressing different fragments of split luciferase reporters with flexible linker were procured from Addgene (catalogue # 58786, 58787, 58788 and 58789). The vectors were digested with EcoRI and XhoI. EcoRI and XhoI restriction enzyme sites were added to 5′ and 3′ ends of the coding region of IGF2BP1, respectively, using PCR. We constructed four split luciferase reporter vectors by cloning IGF2BP1 in different orientations with the luciferase fragments . Primers used for the amplification of IGF2BP1 were: […]
The RKO cells were seeded in DMEM with 10% calf serum 24 hrs prior to the transfection. Transfection was done using Lipofectamine 2000 with reporter plasmids and Renilla-luciferase expressing vector (as internal control). After 24 hrs, cells were lysed using passive lysis buffer (Promega catalogue # E1941). The lysates were cleared by centrifugation and its 20 μL volume was mixed with 100 μL of luciferase substrate solution for luminescence recording which was followed by addition of 100 μL of Stop-glo solution (Promega catalogue # E1910) with an additional luminescence reading. Both readings were detected by using GloMax 20/20 Luminometer (Promega), and the final value for each sample was the ratio of their two respective readings. […]

T1 sequence (Q9NZI8 whole entry): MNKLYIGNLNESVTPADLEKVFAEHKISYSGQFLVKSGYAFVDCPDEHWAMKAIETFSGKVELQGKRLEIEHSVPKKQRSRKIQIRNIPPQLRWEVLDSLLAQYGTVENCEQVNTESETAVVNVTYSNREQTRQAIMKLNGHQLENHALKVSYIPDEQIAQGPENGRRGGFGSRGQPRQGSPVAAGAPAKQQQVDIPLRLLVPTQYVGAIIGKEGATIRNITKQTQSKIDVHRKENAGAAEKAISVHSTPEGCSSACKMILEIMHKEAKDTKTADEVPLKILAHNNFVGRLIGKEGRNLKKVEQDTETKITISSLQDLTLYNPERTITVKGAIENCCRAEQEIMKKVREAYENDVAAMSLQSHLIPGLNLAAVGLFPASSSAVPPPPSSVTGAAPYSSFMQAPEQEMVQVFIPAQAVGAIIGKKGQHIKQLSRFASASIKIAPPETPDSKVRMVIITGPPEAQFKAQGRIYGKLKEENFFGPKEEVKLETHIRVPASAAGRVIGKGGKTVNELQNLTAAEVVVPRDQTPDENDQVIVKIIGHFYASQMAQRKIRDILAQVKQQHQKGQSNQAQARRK

- IC50 (Igf2bp1): ~30 µM and 30.4 µM
- Effect on G9a catalysing methylation of a peptide (G9a): almost no effect
SMILES: O=C(c1ccc(Cn2cnnn2)cc1)N1CCCC(Nc2ccc3c(c2)OCO3)C1 (stereo not shown) [compound 7773]
- Effect on migration of cells expressing GFP alone [1]: unaffected
- Effect on split-luciferase luminescence [2]: significantly reduced luminescence
